The values below come from patent US20200108032A1, “USE OF ISOFERULIC ACID, ISOFERULIC ACID-CONTAINING TRADITIONAL CHINESE MEDICINE EXTRACT AND CIMICIFUGAE RHIZOMA” (BEIJING DITAN HOSPITAL, CAPITAL MEDICAL UNIVERSITY, priority 2017, published 2020).

What all share (type): in vivo, C57BL/6 mice
In experiment [1] the test system is CIA arthritis mice. Briefly: Micro-CT of joint structure / bone damage in CIA mice. To be noted: 21 days after second immunization, MEAN ± SEM. The text has this: (§1) Test materials and animals: Consistent with Experimental Example 3. Anti-type II collagen antibody ELISA kit was purchased from Chondrex, Cytokine & Chemokine 36-Plex Mouse ProcartaPlex™ Panel 1A cytokine and chemokine detection kit was purchased from ThermoFisher.
(§2) Model preparation and drug administration: the drug dosage of each treatment group was the same as that of Experimental Example 3. After 21 days of the second immunization, the mice were anesthetized.
(1) Micro-CT technology was used to examine the effect of each drug group on the joint structure of CIA mice. After taking 3 mice from each group, the right hind limbs were taken immediately after neck dissection and fixed in 4% neutral formalin. After 2-3 days of fixation, a micro-CT scan was performed using a live animal imaging system. Extraction site: extracted the data of the area above the tibial plaque plate of the right hind limb of the mouse. 3 sets of data were taken. Size selection: the upper part of the tibial plaque plate (0.25*0.25*0.25); measurement indicators of the extracted bones: bone density, bone volume, bone volume fraction and number of bone trabeculae.

Experiment [2] relates to serum cytokines. Briefly: Serum cytokines in CIA arthritis mice (multi-factor detection). To be noted: MEAN ± SEM.
Excerpt: as §1, §2
(3) The effects of each drug group on cytokine secretion in serum and joint tissues of CIA mice were measured. Seven mice from each group were examined; peripheral blood was collected and separated from serum. Cytokines in serum were detected by multiple factors: IFN-γ, IL-6, IL-9, IL-12, IL-17A, IP-10, MCP-1, MCP-3. MIP-1α, MIP-1β, Eotaxin, and G-CSF; the right hind limb knees, joints and claws were taken and stored in liquid nitrogen for quick freezing, then homogenized and extracted protein. Multi-factor detection of cytokines in tissues: IL-9, IL-18 and MIP-2 secretion.

Experiment [3] deals with mouse model of ConA hepatitis. As to the kind of experiment: Liver pathological damage (HE staining) in mouse model of ConA hepatitis. To be noted: liver 10 hours after ConA 15 mg/kg; compared with the ConA group. The method, then:
(§3) The test materials and animals were the same as those in Experimental Example 1.
(§4) Grouping: C57BL/6 mice, male, 18-20 g, after 1 day of adaptive breeding, the mice were randomly divided into 6 groups: normal control group; ConA model group, Cimicifugae rhizoma compatibility group, Cimicifugae rhizoma group, Cimicifugae rhizoma total phenolic acid group and isoferulic acid group.
(§5) Model preparation and drug administration: except the normal control group, mice were injected intravenously once at a dose of ConA 15 mg/kg. The dosages of each drug group were the same as those of Experimental Example 1.
(2) The effects of each drug group on liver pathological damage in ConA mice were examined. Three mice in each group were sacrificed under anesthesia 10 hours after ConA injection. The left lobe of the liver was taken, cut into a size of about 5 mm^3, and placed in 10% formalin solution, and dehydrated, transparently impregnated with wax, embedded, sliced, and spread, and observed after staining;

The test system of experiment [4] is anti-type II collagen antibody. As to the kind of experiment: Serum anti-type II collagen antibody content in CIA mice (ELISA). To be noted: 21 days after second immunization.
Excerpt: as §1, §2
(2) The effects of each drug group on the anti-type II collagen antibody content in the serum of CIA mice were measured. Seven mice from each group were examined; peripheral blood was collected and separated from serum. Anti-type II collagen antibodies were detected with Elisa.
In general terms: ELISA stands for enzyme-linked immunosorbent assay.

The subject of experiment [5] is mouse model of ConA hepatitis. As to the kind of experiment: Serum ALT and AST in mouse model of ConA hepatitis. To be noted: serum 10 hours after ConA 15 mg/kg i.v.; doses as Experimental Example 1; MEAN ± SEM. The protocol:
as §3, §4, §5
(1) The effects of each drug group on serum ALT and AST of ConA mice were examined. Eight mice in each group were sacrificed under anesthesia 10 hours after ConA injection. Peripheral blood was taken and serum was separated to detect ALT and AST.

Experiment [6] concerns granulocytes and NK cells. Briefly: Proliferation (Ki-67) of granulocytes and NK cells in CIA arthritis mice (flow cytometry). To be noted: intracellular Ki-67 expression; 21 days after second immunization; MEAN ± SEM. The text has this:
Test materials and animals: CD3-PerCP, NK1.1-APC antibody, Ki67-PE antibody, Intracellular Fixation & Permeabilization Buffer Set were purchased from eBioscience; CD48 PE, CD11b FITC and B220-FITC antibodies were purchased from BD Pharmingen company; other required reagents were the same as in Example 7.
Model preparation and drug administration: the administration dose of each treatment group was the same as that of Experimental Example 3. 21 days after the second immunization, the mice were anesthetized.
Animal: C57BL/6 mice, purchased from Beijing Huafukang Biotechnology Co., Ltd.
The proliferation capacity of the spleen Ki-67 expression response cell was detected by flow cytometry. Two tubes of spleen single cell suspension were prepared and used to detect the proliferation of CD48^−CD11b^+ positive granulocytes and CD3^−NK1.1^+B220^−NK cells.
The surface staining procedure was the same as in Experimental Example 7.
Intracellular staining: after surface staining, intracellular staining was performed: 1) added 100 μL of fixed membrane-breaking solution Fixation Buffer, protected it from light at room temperature, fixed the membrane for 40 min; 2) added 1 mL of Permeabilization Buffer and washed twice, discarded the supernatant 3) added 1 μL of Ki-67-PE antibody at room temperature and protected it from light for 40 min; 4) same as step 2); and 5) used flow cytometer BD Calibar to measure the percentages of intracellular Ki-67 expression in CD48^−CD11b+ positive granulocytes, and CD3^−[…]B220^−NK cells, respectively.
A general note: Flow cytometry measures light scatter and fluorescence of single cells or particles in a stream.

In turn, `COc1ccc(C=CC(=O)O)cc1O` [isoferulic acid, 3-hydroxy-4-methoxycinnamic acid] yielded a Bone density in experiment [1] (area above tibial plate of right hind limb) of 9.5 ± 1.5 mg/cc. Further, in experiment [1] (right hind limb), the Bone volume is given as 0.0014 ± 0.0005 mm 3, the Bone volume fraction worked out at 0.095 ± 0.034 and the number of trabeculae is 2.042 ± 0.572 1/mm. In experiment [2], this compound had an Eotaxin of 349.6 ± 85.4 pg/mL, a G-CSF of 4 ± 1.2 pg/mL, an IL-6 of 23.3 ± 21.6 pg/mL and an IL-9 of 15 ± 5.8 pg/mL. Moreover, in experiment [2], the IL-12 is 21.9 ± 3.5 pg/mL, the IL-17A was 4.9 ± 3.1 pg/mL, the IP-10 stood at 52.8 ± 20.8 pg/mL and the MCP-1 was 139.3 ± 43.4 pg/mL. Further, in experiment [2], the MCP-3 is 151.9 ± 20 pg/mL, the MIP-1α turned out to be 2.4 ± 0.6 pg/mL and the MIP-1β worked out at 3.2 ± 1.1 pg/mL. Also, the IFN-γ in experiment [2] (isoferulic acid 5 mg/kg) is 120.6 ± 37.1 pg/mL. Further, the “liver pathological damage (HE staining)” value in experiment [3] is “reduced hepatocyte degeneration and necrosis”. Moreover, in experiment [4], the “Anti-type II collagen antibody” value is 9610 ± 664 Units/ml. Moreover, in experiment [5], the ALT was 3573 ± 1314 U/L and the AST amounted to 4351 ± 1588 U/L. Besides, in experiment [6], the “Proliferation of Granulocytes, bone marros” value worked out at 27.8 ± 8.2 %; the “Proliferation of Granulocytes, spleen” value is listed as 26.8 ± 12.5 %; the “Proliferation of NK cells, spleen” value is 14 ± 9 %.
